Values quoted from earlier work in patent US20090054334A1, “Combinatorial improvement of bifunctional drug properties” (priority 2007, published 2009).

Key:
[1] = in vivo
[2] = in vivo; remark: listed apart in the source

Structure (SMILES)	bioavailability [1]	half life [1]	distribution into protected cellular compartments, in the blood [2]	blood-brain barrier crossing [1]
C=CC[C@@H]1/C=C(\C)C[C@H](C)C[C@H](OC)[C@H]2O[C@@](O)(C(=O)C(=O)N3CCCC[C@H]3C(=O)O[C@H](/C(C)=C/[C@@H]3CC[C@@H](O)[C@H](OC)C3)[C@H](C)[C@@H](O)CC1=O)[C@H](C)C[C@@H]2OC [FK506]	20%	11.3 h	72-98%	–
CCC(C)(C)C(=O)C(=O)N1CCC[C@H]1C(=O)O [GPI-1485]	50%	–	–	crosses the blood-brain barrier
